Test results published in US11667643B2, “RIP1K inhibitors” (priority 2020, dated 2023).
Like-named read-outs stand apart in the source and are kept apart here.

How the values were obtained:
RIPK1 = RIPK1 (Homo sapiens (Human), UniProt Q13546); assay: biochemical; format: biochemical
Procedure: In this example, compounds of the disclosure were evaluated using a biochemical assay using the ADP-Glo™ technology.
ADP-Glo™ (Promega, Madison, Wis., USA) reagents were thawed at ambient temperature. Kinase Detection Reagent was prepared by mixing kinase detection buffer with the lyophilized kinase detection substrate.
A […] stock volume of 5× Reaction Kinase Buffer was made by mixing 1000 μl of 1M MgCl2, 500 μl of 1M Tris-HCL pH7.4, 0.5 mg/ml (25 mg) of BSA, and 3475 μl of distilled H2O. A 3 ml 2× working stock volume of Reaction Kinase Buffer was made containing a final concentration of 100 μM DTT and 4 mM MnCl2.
Components of RIPK1 enzyme (Rigel Pharmaceuticals, South San Francisco, Calif., USA) were thawed on ice. Diluted RIPK1 was prepared in 1× Kinase Reaction Buffer (diluted from 2× buffer) to 31 ng/well.
1.0 ul of diluted compound was added to a 384 well plate in duplicate. […] The final reaction volume was 5.0 μl. The plate was quickly centrifuged and the reaction was incubated at 30° C. for 30 minutes. Adding 5 μl of ADP-Glo™ terminated the reaction. The plate was quickly centrifuged and the reaction was incubated at room temperature for 40 minutes. Kinase Detection Reagent was then added and incubated at room temperature for 30 minutes. The relative light unit (RLU) of kinase reaction was determined by luminescent (Luminescence 0.1 s) using a Wallac Victor2 Luminometer (PerkinElmer, Waltham, Mass., USA).

U937 cells = assay: U937 cell necroptosis assay (TNFa + zVAD, CellTiter-Glo recovery), functional human RIP1 assay; format: cell-based; settings: Homo sapiens, U-937, 18 h, read-out: U937 Zvad TNF CTG Recovery, U937, TNFa + zVAD (IC50), U937 cells, zVAD-fmk, TNFa 2 ng/mL, 18 hours, CellTiter-Glo
Procedure: (§1) In this example, U937 and L929 cells were exposed to compounds of the present disclosure and a cell necroptosis assay was conducted to evaluate compound activity in functional human RIP1 and murine RIP1 assays.
(§2) U937 and L929 cells were obtained from the American Type Culture Collection (Manassa, Va., USA). Both cells were maintained in logarithmic growth phase in complete RPMI 1640 media (Sigma, ST Louis, Mo., USA) supplemented with 10% fetal bovine serum (Sigma, ST Louis, Mo., USA) at 37° C. with 5% CO2. For necroptosis assay, L929 cells were plated for 18 h in 100 μL/well medium at 10K cells/well in Costar 96-well black clear-bottom plates (Fisher Scientific, Hampton, N.H., USA); U937 cells were plated on the day of the assay in 50 μL/well medium containing 60 uM zVAD-fmk (Lonza, Basel, Switzerland) at 50K cells/well. Medium from L929 cells were removed from the 96-well plates and replaced with 50 μL/well new medium containing 40 uM zVAD-fmk. Each compound of the present disclosure evaluated in this example was serially diluted in DMSO from 2.5 mM in 4-fold dilutions, and then diluted 1:125 in complete medium. 50 μL/well 2× of the compound was then added to the cells in the plates. The cells were pre-incubated with the compound for 1 hour at 37° C. with 5% CO2 and before addition of 10 μL/well 11×TNFa (Peprotech, Rocky Hill, N.J., USA) to give a final concentration of 2 ng/mL for TNFa. The relative amount of necroptosis cells was determined by luminescent using a Wallac Victor2 Luminometer (PerkinElmer, Waltham, Mass., USA) and a CellTiter-Glo® Luminescent Cell Viability Reagent Assay (Promega, Madison, Wis., USA) added per manufacturer instructions after 18 hours of TNFa stimulation at 37° C. with 5% CO2. This example establishes that embodiments of the compounds described herein have unexpectedly potent activity against human RIP1 and murine RIP1, which allows their assessment in in vivo mouse models of disease.

L929 cells = assay: L929 cell necroptosis assay (TNFa + zVAD, CellTiter-Glo recovery), functional murine RIP1 assay; format: cell-based; settings: Mus musculus, L929, 18 h, read-out: L929-CTG-recovery, L929, TNFa + zVAD (IC50), L929 cells, zVAD-fmk, TNFa 2 ng/mL, 18 hours, CellTiter-Glo
Procedure: as §1, §2

[1] = RIPK1 enzyme 31 ng/well, 30° C. for 30 minutes, luminescence, read-out: RIPK1 ADP-Glo Kinase (IC50)

Chain of RIPK1 (Q13546 whole entry, species assumed): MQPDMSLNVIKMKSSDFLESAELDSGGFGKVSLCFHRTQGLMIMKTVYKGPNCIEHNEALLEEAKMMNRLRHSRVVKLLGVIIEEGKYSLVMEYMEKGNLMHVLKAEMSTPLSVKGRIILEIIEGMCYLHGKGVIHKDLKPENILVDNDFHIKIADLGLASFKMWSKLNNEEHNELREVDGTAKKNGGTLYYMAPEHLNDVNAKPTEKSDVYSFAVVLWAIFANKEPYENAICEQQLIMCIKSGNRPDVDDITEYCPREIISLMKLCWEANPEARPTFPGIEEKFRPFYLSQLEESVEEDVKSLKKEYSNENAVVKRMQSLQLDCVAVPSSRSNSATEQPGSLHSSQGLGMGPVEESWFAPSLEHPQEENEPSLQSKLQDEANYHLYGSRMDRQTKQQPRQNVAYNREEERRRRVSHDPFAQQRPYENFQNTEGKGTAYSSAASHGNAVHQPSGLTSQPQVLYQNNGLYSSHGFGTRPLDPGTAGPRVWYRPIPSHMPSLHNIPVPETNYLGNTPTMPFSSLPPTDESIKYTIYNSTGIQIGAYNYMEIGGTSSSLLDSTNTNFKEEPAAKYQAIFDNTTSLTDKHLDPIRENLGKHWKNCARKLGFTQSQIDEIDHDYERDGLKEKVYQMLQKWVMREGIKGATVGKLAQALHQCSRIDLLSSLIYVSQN

`O=C(N[C@H]1COc2ccc(N3CC4(CCOCC4)C3)cc2-n2ccnc21)c1cc(Oc2ccccc2)ccn1` [Compound I-88, (R)—N-(9-(7-Oxa-2-azaspiro[3.5]nonan-2-yl)-4,5-dihydrobenzo[b]imidazo[1,2-d][1,4]oxazepin-4-yl)-4-phenoxypicolinamide] was tested, and the IC50 (RIPK1; [1]) was 0.112 µM, the IC50 (U937 cells) was 0.163 µM and the IC50 (L929 cells) was 10000 µM.

Work on `CC(C)(O)C#Cc1ccc2c(c1)-n1ccnc1C(NC(=O)c1cc(Oc3ccccc3)ccn1)CC2` (racemic) [Compound I-56, (±)-N-(9-(3-Hydroxy-3-methylbut-1-yn-1-yl)-5,6-dihydro-477-benzo[f]imidazo[1,2-a]azepin-4-yl)-4-phenoxypicolinamide] yielded an IC50 (RIPK1; [1]) of 0.0561 µM, an IC50 (U937 cells) of 0.0345 µM and an IC50 (L929 cells) of 5.09 µM.

`O=C(NC1Cc2ccccc2-n2ccnc21)c1n[nH]c(Cc2ccccc2)n1` (racemic) [Compound I-66, (±)-5-Benzyl-N-(4,5-dihydroimidazo[1,2-a]quinolin-4-yl)-1H-1,2,4-triazole-3-carboxamide] was tested, and the IC50 (RIPK1; [1]) was 13.5 µM, the IC50 (U937 cells) was 10000 µM and the IC50 (L929 cells) was 10000 µM.

Work on `O=C(NC1CCc2ccc(N3CC4(CCOCC4)C3)cc2-n2ccnc21)c1ccn(Cc2ccccc2)n1` (racemic) [Compound I-85, (±)-N-(9-(7-Oxa-2-azaspiro[3.5]nonan-2-yl)-5,6-dihydro-4H-benzo[f]imidazo[1,2-a]azepin-4-yl)-1-benzyl-1H-pyrazole-3-carboxamide] yielded an IC50 (RIPK1; [1]) of 0.168 µM, an IC50 (U937 cells) of 0.0309 µM and an IC50 (L929 cells) of 1.35 µM.

`O=C(N[C@H]1CSc2ccccc2-n2nnnc21)c1cc(Cc2ccccc2)on1` [Compound I-23, (R)-5-Benzyl-N-(4,5-dihydrobenzo[b]tetrazolo[1,5-d][1,4]thiazepin-4-yl)isoxazole-3-carboxamide] was tested, and the IC50 (RIPK1; [1]) was 0.0429 µM, the IC50 (U937 cells) was 0.101 µM and the IC50 (L929 cells) was 10000 µM.

`O=C1c2nn(Cc3ccccc3)c(Cl)c2CN1[C@H]1COc2ccccc2-n2nnnc21` [Compound I-79] was tested, and the IC50 (RIPK1; [1]) was 0.652 µM, the IC50 (U937 cells) was 16.1 µM and the IC50 (L929 cells) was 10000 µM.

In the case of `O=C(N[C@H]1COc2ccccc2-n2nnnc21)c1ncn(Cc2c(Cl)cccc2Cl)n1` [Compound I-11, (R)-1-(2,6-Dichlorobenzyl)-N-(4,5-dihydrobenzo[6]tetrazolo[1,5-d][1,4]oxazepin-4-yl)-1H-1,2,4-triazole-3-carboxamide], the IC50 (RIPK1; [1]) is reported as 0.0178 µM, the IC50 (U937 cells) is reported as 0.0343 µM and the IC50 (L929 cells) is reported as 10000 µM.

In the case of `CC(C)(O)CCc1ccc2c(c1)-n1ccnc1C(NC(=O)c1n[nH]c(Cc3ccccc3)n1)CC2` (racemic) [Compound I-68, (±)-5-Benzyl-N-(9-(3-hydroxy-3-methylbutyl)-5,6-dihydro-4H-benzo[f]imidazo[1,2-a]azepin-4-yl)-1H-1,2,4-triazole-3-carboxamide], the IC50 (RIPK1; [1]) is reported as 0.118 µM, the IC50 (U937 cells) is reported as 0.0252 µM and the IC50 (L929 cells) is reported as 8.67 µM.

With `O=C(NC1COc2ccccc2-n2cccc21)c1n[nH]c(Cc2ccc(F)cc2)n1` (racemic) [Compound I-37, (±)-N-(6,7-Dihydrobenzo[b]pyrrolo[1,2-d][1,4]oxazepin-7-yl)-5-(4-fluorobenzyl)-1H-1,2,4-triazole-3-carboxamide] the IC50 (RIPK1; [1]) was 1.14 µM, the IC50 (U937 cells) was 4.07 µM and the IC50 (L929 cells) was 10000 µM.

With `O=C(N[C@H]1CS(=O)(=O)c2ccccc2-n2nnnc21)c1cc(Cc2ccccc2)on1` [Compound I-25, (R)-5-Benzyl-N-(6,6-dioxido-4,5-dihydrobenzo[b]tetrazolo[1,5-d][1,4]thiazepin-4-yl)isoxazole-3-carboxamide] the IC50 (RIPK1; [1]) was 0.51 µM, the IC50 (U937 cells) was 28.6 µM and the IC50 (L929 cells) was 10000 µM.

In the case of `O=C(N[C@H]1COc2ccccc2-n2c1noc2=O)c1cc(O)n(Cc2ccccc2)n1` [Compound I-75, 1-Benzyl-5-hydroxy-N-((4R)-1-oxo-4,5-dihydro-1H-benzo[b][1,2,4]oxadiazolo[4,3-d][1,4]oxazepin-4-yl)-1H-pyrazole-3-carboxamide], the IC50 (RIPK1; [1]) is reported as 10.6 µM, the IC50 (U937 cells) is reported as 10000 µM and the IC50 (L929 cells) is reported as 10000 µM.

`O=C(N[C@H]1C[S+]([O-])c2ccccc2-n2nnnc21)c1cc(Cc2ccccc2)on1` (stereo partly drawn) [Compound I-26, 5-Benzyl-N-((4R)-6-oxido-4,5-dihydrobenzo[b]tetrazolo[1,5-d][1,4]thiazepin-4-yl)isoxazole-3-carboxamide] gave an IC50 (RIPK1; [1]) of 1.37 µM, an IC50 (U937 cells) of 0.176 µM and an IC50 (L929 cells) of 10000 µM.

`O=C(NC1CCc2ccc(N3CCC4(CCOCC4)CC3)cc2-n2ccnc21)c1ccn(Cc2ccccc2)n1` (racemic) [Compound I-77, (±)-N-(9-(3-Oxa-9-azaspiro[5.5]undecan-9-yl)-5,6-dihydro-4H-benzo[f]imidazo[1,2-a]azepin-4-yl)-1-benzyl-1H-pyrazole-3-carboxamide] showed an IC50 (RIPK1; [1]) of 0.111 µM, an IC50 (U937 cells) of 0.0096 µM and an IC50 (L929 cells) of 4.08 µM.

`O=C(NC1CCc2ccccc2-n2c(Cl)cnc21)c1cc(Cc2ccccc2)on1` (racemic) [Compound I-71, (±)-5-Benzyl-N-(1-chloro-5,6-dihydro-4H-benzo[f]imidazo[1,2-a]azepin-4-yl)isoxazole-3-carboxamide] showed an IC50 (RIPK1; [1]) of 0.58 µM, an IC50 (U937 cells) of 3.48 µM and an IC50 (L929 cells) of 10000 µM.

`O=C(N[C@H]1COc2ncccc2-n2c1noc2=O)c1cc(Cc2ccccc2)on1` [Compound I-46, 5-Benzyl-N-((4R)-1-oxo-4,5-dihydro-1H-[1,2,4]oxadiazolo[4,3-d]pyrido[2,3-b][1,4]oxazepin-4-yl)isoxazole-3-carboxamide] gave an IC50 (RIPK1; [1]) of 4.41 µM, an IC50 (U937 cells) of 39.4 µM and an IC50 (L929 cells) of 10000 µM.

With `O=C(NC1CSc2cccn2-n2ccnc21)c1ncn(Cc2c(Cl)cccc2Cl)n1` (racemic) [Compound I-29, (±)-1-(2,6-Dichlorobenzyl)-N-(4,5-dihydroimidazo[1,2-d]pyrrolo[2,1-b][1,3,4]thiadiazepin-4-yl)-1H-1,2,4-triazole-3-carboxamide] the IC50 (RIPK1) was 0.0098 µM, the IC50 (U937 cells) was 0.0011 µM and the IC50 (L929 cells) was 0.195 µM.

`O=C(N[C@H]1CSc2ccccc2-n2nnnc21)c1n[nH]c(Cc2ccccc2)n1` [Compound I-24, (R)-5-Benzyl-N-(4,5-dihydrobenzo[b]tetrazolo[1,5-d][1,4]thiazepin-4-yl)-1H-1,2,4-triazole-3-carboxamide] gave an IC50 (RIPK1; [1]) of 0.0272 µM, an IC50 (U937 cells) of 0.0144 µM and an IC50 (L929 cells) of 2.14 µM.

`O=C(NC1CCc2ccccc2-n2ccnc21)c1n[nH]c(Cc2c(Cl)cccc2Cl)n1` (racemic) [Compound I-19, (±)-5-(2,6-Dichlorobenzyl)-N-(5,6-dihydro-4H-benzo[f]imidazo[1,2-a]azepin-4-yl)-1H-1,2,4-triazole-3-carboxamide] gave an IC50 (RIPK1; [1]) of 0.393 µM, an IC50 (U937 cells) of 0.96 µM and an IC50 (L929 cells) of 10000 µM.

Work on `O=C(NC1CCc2ccccc2-n2c1noc2=O)c1n[nH]c(Cc2ccccc2)n1` (racemic) [Compound I-48, (±)-5-Benzyl-N-(1-oxo-5,6-dihydro-1H,4H-benzo[f][1,2,4]oxadiazolo[4,3-a]azepin-4-yl)-1H-1,2,4-triazole-3-carboxamide] yielded an IC50 (RIPK1; [1]) of 0.0534 µM, an IC50 (U937 cells) of 0.0408 µM and an IC50 (L929 cells) of 10000 µM.

With `O=C(N[C@H]1COc2ccc(C#Cc3ccccn3)cc2-n2ccnc21)c1n[nH]c(Cc2ccccc2)n1` [Compound I-89, (R)-5-Benzyl-N-(9-(pyridin-2-ylethynyl)-4,5-dihydrobenzo[b]imidazo[1,2-d][1,4]oxazepin-4-yl)-1H-1,2,4-triazole-3-carboxamide] the IC50 (RIPK1; [1]) was 0.108 µM, the IC50 (U937 cells) was 0.0352 µM and the IC50 (L929 cells) was 7.93 µM.

Compound `O=C(N[C@H]1COc2ccccc2-n2c1noc2=O)c1cc(Oc2ccccc2)ccn1` [Compound I-53, N-((4R)-1-Oxo-4,5-dihydro-1H-benzo[6][1,2,4]oxadiazolo[4,3-d][1,4]oxazepin-4-yl)-4-phenoxypicolinamide] has an IC50 (RIPK1; [1]) of 0.0204 µM, an IC50 (U937 cells) of 0.0462 µM and an IC50 (L929 cells) of 30.7 µM.
